# Where two headings read alike, the source gives them in different places.
# Experiments:
# [1] = test system: methylnitrosourea-induced mammary cancers; assay: Prevention of methylnitrosourea-induced mammary carcinogenesis; type: in vivo, female Sprague-Dawley rats; conditions: for reduction of final tumor multiplicity: 6 mg/kg BW
# [2] = test system: established mammary cancers induced by methylnitrosourea; assay: Therapy of established; type: in vivo, female Sprague-Dawley rats; conditions: for reduction of average tumor size: vehicle group increased 250%
# [3] = test system: phosphorylated ERKs (T202/Y204); assay: Biomarker study: Western blot of phosphorylated ERK in mammary cancers; type: in vivo, female Sprague-Dawley rats
# [4] = human, 150 mg, steady state; cited from earlier work
# [5] = cited from earlier work
# brain metastases = conditions: nine patients, median dose 1500 mg weekly; cited from earlier work
# [6] = test system: transgenic model of ER negative breast cancer; conditions: ref Lubet and Grubbs, unpublished data; cited from earlier work
# [7] = test system: carcinogen-induced urinary bladder model; conditions: ref Lubet and Grubbs, unpublished data; cited from earlier work
# [8] = Serum pharmacokinetics of erlotinib and OSI-420 after gavage; conditions: for concentration at 2 h / concentration at 4 h / concentration at 8 h / concentration at 24 h / concentration at 48 h / half-life / AUC(0-t) / Cmax / Tmax: female, Sprague-Dawley, rat, serum
# [9] = test system: MNU-induced rat mammary cancers; conditions: varied doses; cited from earlier work
# [10] = Experiment C, weekly dosing at either 42 or 21 mg/kg BW
# [11] = rat 42 mg/kg BW vs human 150 mg
# [12] = rat effective daily dose (6 mg/kg BW) vs human
smiles,measurement,setting,value
C#Cc1cccc(Nc2ncnc3cc(OCCOC)c(OCCOC)cc23)c1 [Erlotinib],tumor incidence and latency,"[1]; Experiment A, 6 mg/kg BW daily, one day on/one day off, or two days on/two days off, all three regimens vs controls P<.01",reductions of tumor incidence and increases in latency
same,reduction of final tumor multiplicity,"[1]; Experiment A, 2 days on/2 days off, vs vehicle controls P<.001",75%
same,reduction of final tumor multiplicity,"[1]; Experiment A, intermittent dosing (both schedules)",65–75%
same,tumor incidence and latency,"[1]; Experiment B, 6 mg/kg BW daily, 6 mg/kg BW two days on/two days off, or 42 mg/kg BW weekly, all three vs controls P<.01",reduced tumor incidence and increased tumor latency
same,reduction of tumor multiplicity,"[1]; Experiment B, 6 mg/kg BW daily, vs controls P<.005",85%
same,tumor incidence,[1]; [10],strongly inhibited
same,tumor multiplicity,[1]; [10],strongly inhibited
same,preventive activity (tumor incidence and multiplicity),"[1]; initial studies, 6 mg/Kg BW/day, data not shown",highly effective
same,tumor incidence and multiplicity,"[1]; initial studies, various daily doses up to 6 mg/kg BW/day",dose dependent decrease
same,decrease of tumor multiplicity,[1]; lower weekly dose 21 mg/kg BW,approximately 85%
same,reduction of average tumor size,[2]; 6 mg/kg BW daily for 6 weeks,40%
same,reduction of average tumor size,[2]; 42 mg/kg BW weekly for 6 weeks,25%
same,share of mammary tumors that decreased by 60% in size,"[2]; either daily (6 mg/kg BW) or weekly (42 mg/kg BW) dosing, 6 weeks",at least 50%
same,phosphorylation of ERK in cancers (Western blot),[3]; 6 mg/kg BW/day daily for 7 days,striking decrease
same,levels of phosphorylated ERK,[3]; rats treated daily/weekly (abstract),strongly decreased
same,phosphorylated ERK in cancers (Western blot),"[3]; single weekly dose 42 mg/kg BW, examined 6 days following the treatment",strong decrease
same,AUC0–24,[4],26500 ng·h/mL
same,Cmax,[4],1740 ng/mL
same,Tmax,[4],2.44 h
same,patients with moderate (grade 2) rash,[5]; 2000 mg/week,42%
same,severe (grade 3) rash or diarrhea,"[5]; weekly dosing, doses up to 2000 mg/week, any dose level",no severe (grade 3) rash or diarrhea
same,efficacy,brain metastases,significant efficacy was observed
same,efficacy of weekly treatment,[6],strong efficacy
same,efficacy of weekly treatment,[7],strong efficacy
same,concentration at 2 h,"[8]; oral, 6 mg/kg BW/day",708 ± 48 ng/mL
same,concentration at 4 h,"[8]; oral, 6 mg/kg BW/day",427 ± 19 ng/mL
same,concentration at 8 h,"[8]; oral, 6 mg/kg BW/day",277 ± 102 ng/mL
same,concentration at 24 h,"[8]; oral, 6 mg/kg BW/day",25 ± 9 ng/mL
same,concentration at 48 h,"[8]; oral, 6 mg/kg BW/day",0 ng/mL
same,half-life,"[8]; oral, 6 mg/kg BW/day, half-life, daily erlotinib (discussion)",5 to 6 h
same,concentration at 2 h,"[8]; oral, 42 mg/kg BW",1350 ± 96 ng/mL
same,concentration at 4 h,"[8]; oral, 42 mg/kg BW",1060 ± 184 ng/mL
same,concentration at 8 h,"[8]; oral, 42 mg/kg BW",1590 ± 259 ng/mL
same,concentration at 24 h,"[8]; oral, 42 mg/kg BW",470 ± 121 ng/mL
same,concentration at 48 h,"[8]; oral, 42 mg/kg BW",52 ± 11 ng/mL
same,half-life,"[8]; oral, serum half-life",≤ 8 h
same,AUC(0-t),"[8]; po, 6 mg/kg",4680 ng·h/mL
same,Cmax,"[8]; po, 6 mg/kg",708 ng/mL
same,Tmax,"[8]; po, 6 mg/kg",2 h
same,half-life,"[8]; po, 6 mg/kg, T1/2, rat, non-compartmental",4.61 h
same,AUC(0-t),"[8]; po, 42 mg/kg",28400 ng·h/mL
same,Cmax,"[8]; po, 42 mg/kg",1590 ng/mL
same,Tmax,"[8]; po, 42 mg/kg",8 h
same,half-life,"[8]; po, 42 mg/kg, T1/2, rat, non-compartmental",8.06 h
same,AUC relative to the human dose,[8]; rat 6 mg/Kg BW vs human 150 mg,< 20%
same,Cmax relative to human levels,[8]; rat 6 mg/Kg BW vs human 150 mg,< 50%
same,AUC compared with the human,[8]; [11],similar
same,Cmax compared with that achieved in humans,[8]; [11],similar
same,AUC less than in the human,[8]; [12],5 ×
same,Cmax lower than in the human,[8]; [12],approximately 60%
COc1cc2ncnc(Nc3ccc(F)c(Cl)c3)c2cc1OCCCN1CCOCC1 [gefitinib],tumor multiplicity,[9],dose dependent decrease

# From publication PMC3813957 (Cancer prevention research (Philadelphia, Pa.), 2013)
